Source: patent US7060686B2, “Anti-inflammatory compounds derived from Pseudopterogorgia elisabethae” (The Regents of the University of California, priority 2000, dated 2006)

Assays:
[1] = test system: phorbol 12-myristate 13-acetate (PMA) induced ear edema; assay: Mouse ear anti-inflammatory assay; assay type: in vivo; settings: for inhibition in vivo at 25 µg/ear: Mus musculus, 200 min; for inhibition in vivo at 25 µg/ear / Edema (mg ± sem) / % Inhibition: topical, 200 minutes; for inhibition in vivo at 25 µg/ear / % Inhibition: 25 μg/ear with PMA, decrease in edema relative to PMA control group; for Relative Potency, Pseudopterosin A: potency estimate relative to Pseudopterosin A (historical ED50 15 μg/ear); for Relative Potency, Pseudopterosin E: potency estimate relative to Pseudopterosin E (historical ED50 40 μg/ear); for Edema (mg ± sem): 25 μg/ear test compound with 2 μg/ear PMA, left minus right ear bore weight, N=5
Method: A. Mouse Ear Anti-Inflammatory Assay Each compound was topically applied in acetone to the inside pinnae of the ear of a mouse in a solution containing the edema-causing irritant, phorbol 12-myristate 13-acetate (PMA). 2 μg per ear of PMA alone or 25 μg per ear of test compound in combination with PMA was applied to the left ear of each mouse and acetone (control) was applied to each right ear of each mouse. There were 5 mice per treatment group. After incubating 200 minutes, the mice were sacrificed, the ears were removed, and bores were taken and weighed. Edema (inflammation) was measured by subtracting the weight of the right ear from the weight of the left ear. Results were recorded as % decrease (inhibition) or % increase (potentiation) in edema relative to the PMA control group edema.

[2] = test system: phorbol 12-myristate 13-acetate (PMA) induced ear edema; settings: Jacobs' historical standards; cited from earlier work

CC(=O)OC1C(Oc2c(C)c3c4c(c2O)[C@@H](C)CC[C@@H]4[C@@H](C)CC3C=C(C)C)OCC(O)C1O (stereo partly shown) [Compound 1]
inhibition in vivo at 25 µg/ear [1]: 68%
Relative Potency, Pseudopterosin A [1]: 118%
Relative Potency, Pseudopterosin E [1]: 324%
Edema (mg ± sem) [1]: 2.1 ± 0.5 mg

CC(=O)OC1C(Oc2c(C)cc3c(c2O)[C@@H](C)CC[C@@H]3[C@@H](C)CCC=C(C)C)OC(C)C(O)C1O (stereo partly shown) [Compound 4]
inhibition in vivo at 25 µg/ear [1]: 88%
Edema (mg ± sem) [1]: 0.8 ± 0.2 mg
% Inhibition [1]: highest percent inhibition

CC(=O)OC1C(O)COC(Oc2c(C)c3c4c(c2O)[C@@H](C)CC[C@@H]4[C@@H](C)CC3C=C(C)C)C1O (stereo partly shown) [Compound 2]
inhibition in vivo at 25 µg/ear [1]: 88%
Edema (mg ± sem) [1]: 0.8 ± 0.2 mg
% Inhibition [1]: highest percent inhibition

CC(=O)OC1C(C)OC(Oc2c(C)cc3c(c2O)[C@@H](C)CC[C@@H]3[C@@H](C)CCC=C(C)C)C(O)C1O (stereo partly shown) [Compound 6]
inhibition in vivo at 25 µg/ear [1]: 74%
Relative Potency, Pseudopterosin A [1]: 148%
Relative Potency, Pseudopterosin E [1]: 410%
Edema (mg ± sem) [1]: 1.8 ± 0.3 mg

CC(C)=C[C@H]1C[C@H](C)[C@H]2CC[C@H](C)C3=C2C1(O)C(C)=C(O)C3=O (stereo partly shown) [Compound 8, elisabethadiol]
inhibition in vivo at 25 µg/ear [1]: 9%
Edema (mg ± sem) [1]: 6.2 ± 0.6 mg

CC(C)=CCC[C@H](C)[C@H]1CC[C@H](C)C2=C1C(=O)C(C)=C(O)C2=O [Compound 7, elisabethadione]
inhibition in vivo at 25 µg/ear [1]: 83%
Edema (mg ± sem) [1]: 1.2 ± 0.1 mg

CC(C)=C[C@H]1C[C@H](C)[C@H]2CC[C@H](C)c3c(O)c(O[C@@H]4O[C@@H](C)[C@@H](O)[C@@H](O)[C@@H]4O)c(C)c1c32 [Pseudopterosin E]
ED50 [2]: 40 μg/ear

CC(C)=C[C@H]1C[C@H](C)[C@H]2CC[C@H](C)c3c(O[C@@H]4OC[C@@H](O)[C@H](O)[C@H]4O)c(O)c(C)c1c32 [Pseudopterosin A]
ED50 [2]: 15 μg/ear

CC(=O)OC1C(O)C(C)OC(Oc2c(C)cc3c(c2O)[C@@H](C)CC[C@@H]3[C@@H](C)CCC=C(C)C)C1O (stereo partly shown) [Compound 5]
inhibition in vivo at 25 µg/ear [1]: 65%
Relative Potency, Pseudopterosin A [1]: 103%
Relative Potency, Pseudopterosin E [1]: 288%
Edema (mg ± sem) [1]: 2.4 ± 0.6 mg

CC(=O)OC1COC(Oc2c(C)c3c4c(c2O)[C@@H](C)CC[C@@H]4[C@@H](C)CC3C=C(C)C)C(O)C1O (stereo partly shown) [Compound 3]
inhibition in vivo at 25 µg/ear [1]: 69%
Relative Potency, Pseudopterosin A [1]: 123%
Relative Potency, Pseudopterosin E [1]: 337%
Edema (mg ± sem) [1]: 0.9 ± 0.2 mg
